In patent publication US11161876B2, “Anti-inflammatory nanofibers” (Northwestern University, priority 2015, dated 2021):
“Also recorded” adds a separate entry of the source. * marks the point of attachment. C16 alkyl = CCCCCCCCCCCCCCCC*

Key:
Settings in all cases: 10 days post-augmentation; compared between groups
[1] = system: Rat Bladder Augmentation Model; test: Bladder tissue collagen quantification (Masson's Trichrome); format: in vivo
Description: (§1) Athymic female rats (weighing ˜200 g and 8-10 weeks old; National Cancer Institute Animal Production Program) underwent bladder augmentation (ref. 15; herein incorporated by reference in its entirety). Athymic rats were chosen for this study to solely examine the innate immune response to inflammation without influence of the adaptive immune response. In order to induce anesthesia, animals were given intraperitoneal injections of 60 mg/kg ketamine and 5 mg/kg xylazine. A second injection consisting of Buprenex (1 mg/kg) was administered subcutaneously to alleviate any pain/discomfort during and following surgical procedures. An approximate 1.5 cm midline vertical skin incision was created to expose the abdominal fascia and muscles. This was immediately followed by the separation of the wall leading to the identification of the bladder. An approximate 70% supratrigonal cystectomy was performed from anterior to posterior creating a clamshell. Immediately prior to bladder augmentation procedures, samples of the pro-inflammatory biological scaffold, small intestinal submucosa (SIS (0.5×0.5 cm); Cook Biotech.) (refs. 12,13,16; herein incorporated by reference in their entireties) were thoroughly dip-coated separately in one of the previously described AIF-PAs following gelation procedures. The sections of SIS were dip-coated for approximately 20 seconds and allowed to adhere to the SIS for an additional 30 seconds. Dip-coating procedures were performed at room temperature in air. The cystectomized bladder defect was then augmented with: 1) SIS (non-AIF-PA coated SIS; n=8 animals over both time-points); 2) AIF-PA1 coated SIS (denoted as SIS/AIF-PA1; n=11 animals over both time-points); 3) AIF-PA2 coated SIS (denoted as SIS/AIF-PA2; n=8 animals over both time-points); 4) AIF-PA3 coated SIS (denoted as SIS/AIF-PA3; n=3); 5) AIF-PA4 coated SIS (denoted as SIS/AIF-PA4; n=3 animals); 6) AIF-PA5 coated SIS (denoted as SIS/AIF-PA5; n=3 animals); and 7) AIFC-PA6 coated SIS (denoted as SIS/AIFC-PA6; n=9 animals over both time-points). The bladder was finally covered with omentum after being closed in a watertight manner utilizing 7-0 polyglactin suture. The abdominal wall was then closed in a single layer with 5-0 ethibond running suture and the skin re-approximated with 9 mm autoclips. Each group was sacrificed at 10 day and 5 week time-points.
Explanted bladder specimens encompassing the entire thickness of the bladder were isolated immediately following euthanasia and processed (ref. 15; herein incorporated by reference in its entirety). Specimens were fixed in a 10% buffered formalin phosphate (Fisher Scientific, Inc.) solution followed by a series of graded ethanol exchanges then embedded in paraffin (Fisher Scientific). Embedded tissues were sectioned onto glass slides at a thickness of 10 μm using a RM2125 RT Microtome (Leica) onto glass slides and subjected to staining with Masson's Trichrome (Sigma-Aldrich Corp.) reagent. The paraffin was removed from tissue containing slides using a hot plate at 62° C. for 6 minutes and was followed by treatment with xylenes, graded ethanol washes and DI water. Slides were placed in Bouin's solution (Sigma-Aldrich Corp.) for approximately 15 min then rinsed under running tap water. The samples were then stained 5 minutes with Hematoxylin and rinsed with running water and subsequently stained with Scarlet-Acid Fuchsin (Sigma-Aldrich Corp.). Slides were rinsed again with DI water and placed into a mixture of PTA/PMA, followed by Aniline Blue solution and a 1% acetic acid wash. Finally, slides were placed in 95-100% ethanol and rinsed in xylene. Following air drying, a coverslip was placed over the specimen sample and secured with Permaslip (Alban Scientific Inc).
Bladder tissue specimens were evaluated for collagen content (refs. 13,15,17; herein incorporated by reference in their entireties). […]

[2] = system: Rat Bladder Augmentation Model; test: Blood vessel quantification in areas of bladder tissue regeneration; format: in vivo
Description: as §1
Trichrome sample images were opened with Adobe Photoshop CS3 and were initially characterized utilizing a Nikon Eclipse 50i Microscope in addition to Spot Advanced Imaging Software. Vessel numbers were quantified utilizing the pen tool based upon n=10 images per graft in regenerated areas. Individual vessels were selected manually and subsequently quantified using the image histogram tool to acquire pixel density for each vessel. Data is represented as mean number of vessels/mm^2 (means±SE).

CD68+ macrophages = test: Immunofluorescence quantification of CD68+ macrophages in regenerated bladder tissue; format: in vivo, rat
Description: as §1
(§2) Tissue sections comprised of SIS alone, SIS/AIF-PA1, SIS/AIF-PA2, and SIS/AIF-PA6 augmentations were subjected to immunofluorescence staining by initially undergoing antigen retrieval which consisted of 15 min of boiling in citrate buffer (0.01M citrate solution, pH 6.0 with 0.05% Tween-20) followed by cooling at room temperature for approximately 20 minutes. The antibody staining process consisted of a blocking step for 15 min in bovine serum albumin (BSA, 5 mg/ml) followed by a 40 minutes incubation at room temperature with the primary antibody. After washing with DPBS, slides were incubated for 30 min with a secondary antibody and eventually rinsed with DPBS and air dried. Slides were mounted with Vectashield (Vector Laboratories). Primary antibodies were directed against epitopes for the inflammatory markers CD68 (macrophage) (refs. 18,19; herein incorporated by reference in their entireties) MPO (neutrophil) (ref. 20; herein incorporated by reference in its entirety) or the inflammation-related proteins IL1β, TNFα, IL-10, IL-13, CD206 (M2 macrophage) (refs. 21-25; herein incorporated by reference in their entireties) and CD86 (M1 macrophage) (ref. 26; herein incorporated by reference in its entirety). Antibodies directed against the ECM in regenerating bladder tissue (including COL4A3 and fibronectin) were also utilized. Alexa Red 555 or FITC conjugated secondary antibodies (Molecular Probes) were utilized for visualization (ref. 15; herein incorporated by reference in its entirety). […]

MPO+ neutrophils = test: Immunofluorescence quantification of MPO+ neutrophils in regenerated bladder tissue; format: in vivo, rat
Description: as §1, §2

| Substance | collagen levels, in words [1] | blood vessel formation, in words [2] | CD68+ macrophage levels, in words (CD68+ macrophages) | MPO+ neutrophil levels, in words (MPO+ neutrophils) |
| --- | --- | --- | --- | --- |
| C16-VVVAAAEEEDPVKG (SEQ ID NO:5) ({C16 alkyl}-VVVAAAEEEDPVKG-NH2) [SIS/AIF-PA5, anti-inflammatory peptide amphiphile, tested dip-coated on small intestinal submucosa (SIS) scaffold] | not significantly different from those of control groups | least level of blood vessel formation; also recorded: not significantly different from those of control groups |  |  |
| C16-VVVAAAEEEKVLDGQDP (SEQ ID NO:4) ({C16 alkyl}-VVVAAAEEEKVLDGQDP-NH2) [SIS/AIF-PA4, anti-inflammatory peptide amphiphile, tested dip-coated on small intestinal submucosa (SIS) scaffold] | lower mean collagen levels | greater numbers of vessels/mm2 | significantly lower | significantly lower |
| C16-VVVAAAEEEKVLDPVKG (SEQ ID NO:3) ({C16 alkyl}-VVVAAAEEEKVLDPVKG-NH2) [SIS/AIF-PA3, anti-inflammatory peptide amphiphile, tested dip-coated on small intestinal submucosa (SIS) scaffold] | lower mean collagen levels | greater numbers of vessels/mm2 | comparable macrophage levels to SIS/AIF-PA1; also recorded: significantly lower |  |
